Source: ChEMBL document CHEMBL1201862, “PubChem BioAssay data set” (2004)
The source made the active and inactive calls.

Assays:
[1] = target: T1, COUP transcription factor 2 (Homo sapiens, UniProt P24468); test: Luminescence-based cell-based high throughput dose response assay to identify inhibitors of COUP-TFII (NR2F2).; format: functional;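 further: HEK293 cells transiently cotransfected with COUP-TFII expression vector and reporter; luciferase reporter luminescence driven by COUP-TFII from the pX2-168 reporter plasmid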
T1 sequence (P24468 whole entry): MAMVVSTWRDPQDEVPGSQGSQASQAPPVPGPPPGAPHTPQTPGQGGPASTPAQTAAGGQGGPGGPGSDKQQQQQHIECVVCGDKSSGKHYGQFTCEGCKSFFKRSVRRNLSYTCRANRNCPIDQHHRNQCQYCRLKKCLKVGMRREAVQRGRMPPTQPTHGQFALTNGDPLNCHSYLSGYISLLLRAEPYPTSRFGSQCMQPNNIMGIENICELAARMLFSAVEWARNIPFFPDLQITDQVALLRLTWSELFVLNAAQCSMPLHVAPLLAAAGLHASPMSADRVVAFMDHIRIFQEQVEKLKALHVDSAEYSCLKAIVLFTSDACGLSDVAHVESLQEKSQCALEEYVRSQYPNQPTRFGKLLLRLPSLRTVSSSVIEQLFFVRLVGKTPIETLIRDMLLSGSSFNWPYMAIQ

Tumor necrosis factor = Tumor necrosis factor (Homo sapiens, UniProt P01375); test: analog potency on TNFa NF-kB signaling – cell-based, revised, SAR follow-up (AID 2337); format: functional
Sequence of Tumor necrosis factor (P01375 whole entry): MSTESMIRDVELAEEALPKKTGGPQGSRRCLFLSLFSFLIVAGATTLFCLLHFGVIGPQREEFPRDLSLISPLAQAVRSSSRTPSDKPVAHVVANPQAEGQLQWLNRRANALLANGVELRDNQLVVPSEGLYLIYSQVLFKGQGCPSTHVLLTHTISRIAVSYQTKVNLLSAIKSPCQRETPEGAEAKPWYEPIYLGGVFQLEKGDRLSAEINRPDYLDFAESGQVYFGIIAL

HEK293 [2] = test: NOD2 signaling inhibitors in MDP-stimulated cells, cell-based, uHTS, luminescence (AID 2001); format: functional; settings: Homo sapiens
cells = format: functional, cell-based; settings: HEK-CNG
HEK293 [3] = test: inhibition of NOD1-driven NF-kB reporter – cell-based, luminescence, uHTS, primary screen (AID 1578); format: functional; settings: Homo sapiens
HEK293 [4] = test: cells; format: functional, cell-based; settings: Homo sapiens
HEK293 [5] = test: cells; format: functional, cell-based; settings: Homo sapiens; remark: listed apart in the source
HEK293 [6] = test: cells; settings: Homo sapiens
INS1 = test: INS-1E survival protection against cytokine death – cell-based, luminescence, retest, dose response (AID 449756); format: functional; settings: Rattus norvegicus;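 further: cell death triggered by IL-1 beta plus TNF-alpha plus IFN-gamma mixture; protective hits raise ATP signal compared with cytokine alone wells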
Galanin receptor type 3 = Galanin receptor type 3 (Homo sapiens, UniProt O60755); test: Fluorescence-based cell-based primary high throughput dose response assay to identify antagonists of the Galanin Receptor 3 (GalR3).; format: functional
Sequence of Galanin receptor type 3 (O60755 whole entry, the tested form may be a part): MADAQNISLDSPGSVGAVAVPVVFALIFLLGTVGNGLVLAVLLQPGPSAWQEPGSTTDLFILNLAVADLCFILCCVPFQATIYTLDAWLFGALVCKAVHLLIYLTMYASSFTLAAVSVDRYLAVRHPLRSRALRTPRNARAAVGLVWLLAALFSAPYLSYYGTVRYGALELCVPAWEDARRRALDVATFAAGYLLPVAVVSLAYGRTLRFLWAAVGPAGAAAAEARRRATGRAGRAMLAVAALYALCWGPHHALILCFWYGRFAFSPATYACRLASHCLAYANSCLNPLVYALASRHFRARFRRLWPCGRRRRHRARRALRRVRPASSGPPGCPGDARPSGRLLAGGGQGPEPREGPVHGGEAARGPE

[7] = target: T2, Nucleotide-binding oligomerization domain-containing protein 1 (Homo sapiens, UniProt Q9Y239); test: blockers of NOD1 pathway activity – revised, SAR follow-up (AID 2333); format: functional
T2 sequence (Q9Y239 whole entry): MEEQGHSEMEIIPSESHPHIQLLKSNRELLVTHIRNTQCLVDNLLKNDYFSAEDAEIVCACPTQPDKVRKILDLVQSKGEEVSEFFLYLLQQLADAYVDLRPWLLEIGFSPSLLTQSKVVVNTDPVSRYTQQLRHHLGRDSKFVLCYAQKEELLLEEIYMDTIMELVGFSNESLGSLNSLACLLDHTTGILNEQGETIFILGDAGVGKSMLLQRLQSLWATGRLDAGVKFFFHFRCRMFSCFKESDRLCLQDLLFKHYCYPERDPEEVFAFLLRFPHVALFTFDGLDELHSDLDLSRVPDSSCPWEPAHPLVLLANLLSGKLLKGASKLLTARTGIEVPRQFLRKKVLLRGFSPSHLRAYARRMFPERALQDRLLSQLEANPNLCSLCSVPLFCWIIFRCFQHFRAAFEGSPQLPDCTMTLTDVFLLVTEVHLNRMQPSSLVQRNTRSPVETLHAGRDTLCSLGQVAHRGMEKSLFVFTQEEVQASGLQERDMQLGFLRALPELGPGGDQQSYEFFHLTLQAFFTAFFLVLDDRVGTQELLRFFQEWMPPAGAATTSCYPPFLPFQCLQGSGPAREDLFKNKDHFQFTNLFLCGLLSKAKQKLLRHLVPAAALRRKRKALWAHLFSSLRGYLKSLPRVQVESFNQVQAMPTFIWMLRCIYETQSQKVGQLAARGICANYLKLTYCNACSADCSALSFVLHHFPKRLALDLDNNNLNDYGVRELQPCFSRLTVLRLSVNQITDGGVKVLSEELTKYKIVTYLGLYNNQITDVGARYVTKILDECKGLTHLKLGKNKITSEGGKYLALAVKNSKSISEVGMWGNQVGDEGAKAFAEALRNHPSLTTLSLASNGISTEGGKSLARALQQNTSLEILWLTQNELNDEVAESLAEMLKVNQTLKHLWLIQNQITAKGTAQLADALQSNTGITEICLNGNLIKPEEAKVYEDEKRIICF

[8] = OVCAR-3 cell viability loss – plate reader, dry powder samples, PAX8 inhibitor project, dose response (AID 743044); format: functional, cell-based
[9] = IGROV1 cell killing – plate reader, dry powder samples, PAX8 inhibitor project, dose response (AID 743043); format: functional, cell-based; settings: IGROV-1
[10] = OVCAR8 cell viability loss – plate reader, dry powder samples, PAX8 project, dose response (AID 743197); format: functional, cell-based; settings: OVCAR-8
Paired box protein Pax-8 = Paired box protein Pax-8 (Homo sapiens, UniProt Q06710); test: PAX8 transcriptional activity inhibition in RMG-I – RMG-I cells, luciferase, cherry-pick, dose response (AID 687027); format: functional, cell-based;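 further: luciferase reporter driven by Pax8 target thyroperoxidase promoter measured by SteadyGlo luminescence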
Sequence of Paired box protein Pax-8 (Q06710 whole entry): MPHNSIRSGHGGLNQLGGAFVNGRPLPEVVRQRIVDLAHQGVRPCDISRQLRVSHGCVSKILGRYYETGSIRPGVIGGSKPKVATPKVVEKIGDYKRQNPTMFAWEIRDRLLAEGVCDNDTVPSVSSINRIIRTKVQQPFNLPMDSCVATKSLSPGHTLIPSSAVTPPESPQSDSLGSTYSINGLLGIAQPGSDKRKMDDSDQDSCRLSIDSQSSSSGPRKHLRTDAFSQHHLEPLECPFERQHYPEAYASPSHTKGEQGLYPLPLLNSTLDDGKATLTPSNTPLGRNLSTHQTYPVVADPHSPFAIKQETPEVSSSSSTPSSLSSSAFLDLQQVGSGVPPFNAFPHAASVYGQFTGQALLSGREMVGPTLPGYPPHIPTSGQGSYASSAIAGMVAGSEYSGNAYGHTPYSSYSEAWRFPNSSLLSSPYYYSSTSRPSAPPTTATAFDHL

[11] = general cell-killing toxicity readout – plate reader, dry powder samples, cytotoxicity control for PAX8 inhibitor project, dose response (AID 743021); format: functional, cell-based
[12] = toxicity to human hepatoma HepG2 cells – cell-based, cherry-picked samples, cytotoxicity control, dose response (AID 1159577); format: functional
[13] = P. falciparum Dd2 growth inhibitors, dose response, SYBR Green, cherry-picked samples (AID 1159567); format: functional, cell-based
[14] = blockade of melanocortin 4 receptor signaling – cell-based, plate reader, cherry pick, counter-screen for LGR2 antagonist project, dose response (AID 743444); format: functional;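 further: transfected HEK 293 cells stimulated with alpha-MSH peptide; potency of inhibitors of the alpha-MSH evoked signal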
[15] = viability loss in HEK293 cells – cell-based, plate reader, cherry-picked samples, cytotoxicity control, dose response (AID 743446); format: functional
[16] = blockers of bursicon-stimulated LGR2 cAMP reporter – cell-based, HEK293, CRE-luciferase reporter, cherry pick, set 2, dose response (AID 743343); format: functional;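 further: transfected cells were stimulated with diluted bursicon conditioned medium after compound addition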
[17] = A549 cell cytotoxicity, dose response, cytotoxicity control, plate reader, cherry-pick, antagonist series (AID 743412); format: functional, cell-based
[18] = toxicity toward HepG2 liver cells – cell-based, plate reader, cherry-pick, antagonist series, cytotoxicity control, dose response (AID 743416); format: functional

C=CCC1(CC=C)CCCN1C(=O)c1cc(COc2ccc(C)nc2)on1
active: IC50 (Tumor necrosis factor) 4.24 µM | IC50 (HEK293 [2]) 7.3 µM | EC50 (HEK293 [3]) 2.7 µM | IC50 (HEK293 [4]) 4.44 µM | IC50 (HEK293 [5]) 14.1 µM | IC50 (HEK293 [6]) 19 µM | AC50 (INS1) 2.13 µM | IC50 (Galanin receptor type 3) 1.25 µM | IC50 [7] 2.67 µM
inactive: IC50 [1] 11.8 µM | EC50 (cells) > 29.9 µM

COc1ccc(S(=O)(=O)Nc2ccc3c(c2)C(=O)N([C@@H](C)CO)C[C@H](C)[C@@H](CN(C)C(=O)Nc2ccc(C(F)(F)F)cc2)OCCCC[C@@H](C)O3)cc1
active: AC50 [8] 20.5 µM | AC50 [9] 41.5 µM | AC50 [10] 29.6 µM | AC50 (Paired box protein Pax-8) 9.96 µM

O=C1CN(S(=O)(=O)Cc2ccccc2)C[C@@H]2[C@@H](c3ccc(C#Cc4ccc(F)cc4)cc3)[C@@H](CO)N12
active: AC50 [11] 18.5 µM | AC50 [9] 17.4 µM | AC50 [12] 9.1 µM | AC50 [10] 35.9 µM | AC50 (Paired box protein Pax-8) 4.64 µM | AC50 [13] 5.57 µM

COc1ccc(S(=O)(=O)Nc2ccc3c(c2)CC(=O)N([C@@H](C)CO)C[C@H](C)[C@@H](CN(C)Cc2ccc(Cl)c(Cl)c2)O3)cc1
active: AC50 [14] 15.9 µM | AC50 [15] 15.7 µM | AC50 [16] 20.5 µM | AC50 [17] 12.4 µM | AC50 [18] 14.3 µM
